Measurements: US20240180138A1, “Heating Transpiration Composition, and Method for Exterminating Harmful Arthropods Using Same” (SUMITOMO CHEMICAL COMPANY, LIMITED, priority 2021, published 2024)

Tests used:
Assay type in all cases: in vivo
[1] = molecular target: Common house mosquito (Culex pipiens pallens) female adult insects; test: Test Example 2: knockdown by burning insect repellent incense in metallic cylinder, 7 minutes; settings: B alone
Description: (§1) Wood powder 75 parts by weight, tab powder 5 parts by weight, lees powder 5 parts by weight, siam powder 10 parts by weight, and tapioca starch powder 5 parts by weight were mixed, and appropriate amount of water was added thereto and the resulting mixture was kneaded thoroughly. The kneaded mixture was molded to a sheet shape, and punched out to a spiral shape, and thereafter, the resulting mixture was dried to make an approximate degree of 7 to 10% by weight of moisture contents to prepare the blank insect repellent incense.
(§2) The acetone solution of the testing compounds that were diluted to make the prescribed concentrations were applied dropwise uniformly to the obtained blank insect repellent incense, and then air-dried to prepare the test formulation.
Common house mosquito (Culex pipiens pallens) female adult insects 20 were placed in the glass tube with 4.5 cm of a diameter and 12 cm of a height, and they were shut in the glass tube by covering the opening parts of the top and the bottom thereof with a nylon net having 16 mesh by a rubber band. A metallic cylinder with 22 cm of a diameter and 83 cm of the height was installed and set up, and two (2) of the above glass tube in which common house mosquito (Culex pipiens pallens) were placed were installed in the upper opening part and then fixed. The formulation that was prepared according to the above process was set to fire, and set up in the bottom opening part of the metallic cylinder. Seven (7) minutes later, the number of knockdowned (hereinafter, abbreviated as “KD”) individuals were recorded. The experiments were conducted in triple replicates to calculate the KD ratio.

[2] = molecular target: Common house mosquito (Culex pipiens pallens) female adult insects; test: Test Example 3: knockdown by burning insect repellent incense in metallic cylinder, 10 minutes; settings: B alone
Description: as §1, §2
Common house mosquito (Culex pipiens pallens) female adult insects 20 were placed in the glass tube with 4.5 cm of a diameter and 12 cm of a height, and they were shut in the glass tube by covering the opening parts of the top and the bottom thereof with a nylon net having 16 mesh by a rubber band. […] Ten (10) minutes later, the number of knockdowned (hereinafter, abbreviated as “KD”) individuals were recorded. […]

[3] = molecular target: Common house mosquito (Culex pipiens pallens) female adult insects; test: Test Example 1: knockdown by burning insect repellent incense in metallic cylinder, 6 minutes; settings: B alone, 0.01% in incense
Description: as §1, §2
Common house mosquito (Culex pipiens pallens) female adult insects 20 were placed in the glass tube with 4.5 cm of a diameter and 12 cm of a height, and they were shut in the glass tube by covering the opening parts of the top and the bottom thereof with a nylon net having 16 mesh by a rubber band. […] Six (6) minutes later, the number of individuals of knockdowned common house mosquito (Culex pipiens pallens) were recorded. […]

Compound | KD ratio when used alone ([1]; 0.005%) | KD ratio when used alone ([1]; 0.01%) | KD ratio when used alone ([2]; 0.005%) | KD ratio when used alone [3] | KD ratio when used alone ([2]; 0.01%)
COCc1c(F)c(F)c(COC(=O)C2C(C=C(C)C)C2(C)C)c(F)c1F (centres unmarked) [Dimefluthrin, dimefluthrin] | KD ratio 2.7% | KD ratio 68.3% | KD ratio 45.0% |  | 
C/C=C/C1C(C(=O)OCc2c(F)c(F)c(COC)c(F)c2F)C1(C)C (centres unmarked) [Metofluthrin, metofluthrin] |  | KD ratio 75.0% |  | KD ratio 30.0% | 
CC1(C)[C@H](C=C(Cl)Cl)[C@H]1C(=O)OCc1c(F)c(F)cc(F)c1F [Transfluthrin, transfluthrin] | KD ratio 5.0% | KD ratio 10.0% |  |  | KD ratio 81.7%
